Experiments:
slender amaranth (Am) [1] = test: Test Example 3: herbicidal effects by upland field foliage treatment; assay type: in vivo; design: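 grade of growth control; 5 = at least 90%; 4 = 70 to 90%; 3 = 50 to 70%; 2 = 30 to 50%; 1 = 10 to 30%; 0 = under 10%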
How it was run: (§1)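 Post-emergence upland foliage test. Seedlings grown 2 weeks under glass in pots (120 cm^2) of sand, seed topped with soil; treated on the foliage, kept in greenhouse, then assessed at day 14 using rating standards.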

rice flatsedge (Ci) [2] = test: as above; assay type: in vivo; design: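 grade of growth control; 5 = at least 90%; 4 = 70 to 90%; 3 = 50 to 70%; 2 = 30 to 50%; 1 = 10 to 30%; 0 = under 10%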
How it was run: as §1

Diaitaria ciliaris (Di) = test: as above; assay type: in vivo; design: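 grade of growth control; 5 = at least 90%; 4 = 70 to 90%; 3 = 50 to 70%; 2 = 30 to 50%; 1 = 10 to 30%; 0 = under 10%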
How it was run: as §1

[3] = system: common lambsquarters (Ch); test: as above; assay type: in vivo; design: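 grade of growth control; 5 = at least 90%; 4 = 70 to 90%; 3 = 50 to 70%; 2 = 30 to 50%; 1 = 10 to 30%; 0 = under 10%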
How it was run: as §1

barnyardgrass (Ec) [4] = test: as above; assay type: in vivo; design: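 grade of growth control; 5 = at least 90%; 4 = 70 to 90%; 3 = 50 to 70%; 2 = 30 to 50%; 1 = 10 to 30%; 0 = under 10%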
How it was run: as §1

pale smartweed (Po) [5] = test: as above; assay type: in vivo; design: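 grade of growth control; 5 = at least 90%; 4 = 70 to 90%; 3 = 50 to 70%; 2 = 30 to 50%; 1 = 10 to 30%; 0 = under 10%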
How it was run: as §1

monochoria (Mo) = test: Test Example 1: herbicidal effects by paddy field soil treatment; assay type: in vivo; conditions: 100 g of the active ingredient per 10 ares, 21st day after the application, index 0-5 of Table 47;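 note: grade of growth control; 5 = at least 90%; 4 = 70 to 90%; 3 = 50 to 70%; 2 = 30 to 50%; 1 = 10 to 30%; 0 = under 10%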
How it was run: (§2)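 Greenhouse pot test in flooded paddy soil, dosed at 100 g a.i. per 10 ares; effect scored on day 21.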

bulrush (Sc) = test: as above; assay type: in vivo; conditions: 100 g of the active ingredient per 10 ares, 21st day after the application, index 0-5 of Table 47;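 note: grade of growth control; 5 = at least 90%; 4 = 70 to 90%; 3 = 50 to 70%; 2 = 30 to 50%; 1 = 10 to 30%; 0 = under 10%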
How it was run: as §2

barnyardgrass (Ec) [6] = test: as above; assay type: in vivo; conditions: 100 g of the active ingredient per 10 ares, 21st day after the application, index 0-5 of Table 47
How it was run: as §2

slender amaranth (Am) [7] = test: Test Example 2: herbicidal effects by upland field soil treatment; assay type: in vivo; conditions: 100 g of the active ingredient per 10 ares;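 note: grade of growth control; 5 = at least 90%; 4 = 70 to 90%; 3 = 50 to 70%; 2 = 30 to 50%; 1 = 10 to 30%; 0 = under 10%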
From the text: (§3) (Test on Herbicidal Effects by Upland Field Soil Treatment)

rice flatsedge (Ci) [8] = test: as above; assay type: in vivo; conditions: 100 g of the active ingredient per 10 ares
From the text: as §3

[9] = system: common lambsquarters (Ch); test: as above; assay type: in vivo; conditions: 100 g of the active ingredient per 10 ares
From the text: as §3

barnyardgrass (Ec) [10] = test: as above; assay type: in vivo; conditions: 100 g of the active ingredient per 10 ares
From the text: as §3

pale smartweed (Po) [11] = test: as above; assay type: in vivo; conditions: 100 g of the active ingredient per 10 ares
From the text: as §3

Digitaria ciliaris (Di) = test: as above; assay type: in vivo; conditions: 100 g of the active ingredient per 10 ares;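 note: grade of growth control; 5 = at least 90%; 4 = 70 to 90%; 3 = 50 to 70%; 2 = 30 to 50%; 1 = 10 to 30%; 0 = under 10%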
From the text: as §3

[12] = 100 g of the active ingredient per 10 ares, evaluated on the 14th day after treatment
[13] = 21st day after the application, index 0-5 of Table 47
[14] = 100 g active ingredient per 10 ares, evaluated 14th day after treatment
[15] = evaluated on the 21st day after application

Structure (SMILES) | melting point | Herbicidal effects Am (slender amaranth (Am) [1]; [12]) | Herbicidal effects Ci (rice flatsedge (Ci) [2]; [12]) | Herbicidal effects Di (Diaitaria ciliaris (Di); [12]) | Herbicidal effects Ch [3, 12] | Herbicidal effects Ec (barnyardgrass (Ec) [4]; [12]) | Herbicidal effects Po (pale smartweed (Po) [5]; [12]) | Herbicidal effects Mo (monochoria (Mo)) | Herbicidal effects Sc (bulrush (Sc)) | Herbicidal effects Ec (barnyardgrass (Ec) [6]) | Herbicidal effects Am (slender amaranth (Am) [7]; [13]) | Herbicidal effects Ci (rice flatsedge (Ci) [8]; [13]) | Herbicidal effects Ch [9, 13] | Herbicidal effects Ec (barnyardgrass (Ec) [10]; [13]) | Herbicidal effects Po (pale smartweed (Po) [11]; [13]) | Herbicidal effects Di (Digitaria ciliaris (Di); [13]) | other results
Nn1c(C(F)(F)F)ccc(-c2ccc(Cl)cc2Cl)c1=O [Compound No. 1-5, 1-amino-3-(2,4-dichlorophenyl)-6-trifluoromethyl-2(1H)-pyridone] | 98 to 100 °C | 5 | 5 | 5 | 5 | 5 | 5 | 5 | 5 | 5 | 5 | 5 | 5 | 5 | 5 | 5 | –
Cn1c(C(F)(F)F)ccc(-c2ccc(F)cc2F)c1=O [Compound No. 1-12, 3-(2,4-difluorophenyl)-1-methyl-6-trifluoromethyl-2(1H)-pyridone] | 123 to 124 °C | – | – | – | – | – | – | 5 | 5 | 5 | – | – | – | – | – | – | –
C#CCOc1cc(-c2cc(C)c(C(F)(F)F)n(C)c2=O)c(F)cc1Cl [Compound No. 1-76, 3-(4-chloro-2-fluoro-5-propargyloxyphenyl)-1,5-dimethyl-6-trifluoromethyl-2(1H)-pyridone] | 107 to 108 °C | 5 | 5 | 5 | 5 | 5 | 5 | 5 | 5 | 5 | 5 | 5 | 5 | 5 | 5 | 5 | –
C#CCn1c(=O)oc2cc(Cl)c(-c3ccc(C(F)(F)F)n(C)c3=O)cc21 [Compound No. 3-9, 3-[6-chloro-3-(2-propynyl)-benzoxazolin-2-on-5-yl]-1-methyl-6-trifluoromethyl-2(1H)-pyridone] | 187 to 189 °C | – | – | – | – | – | – | 5 | 5 | 5 | – | – | – | – | – | – | Herbicidal effects Am (slender amaranth (Am) [7]; [15]): 5; Herbicidal effects Ci (rice flatsedge (Ci) [8]; [15]): 5; Herbicidal effects Ch [9, 15]: 5; Herbicidal effects Ec (barnyardgrass (Ec) [10]; [15]): 5; Herbicidal effects Po (pale smartweed (Po) [11]; [15]): 5; Herbicidal effects Di (Digitaria ciliaris (Di); [15]): 5
CCOC(=O)c1cc2c(-c3ccc(C(F)(F)F)n(C)c3=O)c(F)cc(Cl)c2o1 [Compound No. 4-6, 3-(7-chloro-2-ethoxycarbonyl-5-fluorobenzofuran-4-yl)-1-methyl-6-trifluoromethyl-2-(1H)-pyridone] | 118 to 120 °C | – | – | – | – | – | – | 5 | 5 | 5 | – | – | – | – | – | – | Herbicidal effects Am (slender amaranth (Am) [1]; [14]): 5; Herbicidal effects Ci (rice flatsedge (Ci) [2]; [14]): 5; Herbicidal effects Di (Diaitaria ciliaris (Di); [14]): 4; Herbicidal effects Ch [3, 14]: 5; Herbicidal effects Ec (barnyardgrass (Ec) [4]; [14]): 5; Herbicidal effects Po (pale smartweed (Po) [5]; [14]): 5
Cn1cc(-c2ccc(Cl)cc2Cl)c(=O)cc1C(F)(F)F [Compound No. 6-3, 5-(2,4-dichlorophenyl)-1-methyl-2-trifluoromethyl-4(1H)-pyridone] | 205 to 206 °C | – | – | – | – | – | – | – | – | – | – | – | – | – | – | – | –
CCOC(=O)c1c(C(F)(F)F)n(C)cc(-c2cc(OC(C)C)c(Cl)cc2F)c1=O [Compound No. 6-42, 5-(4-chloro-2-fluoro-5-isopropoxyphenyl)-3-ethoxycarbonyl-1-methyl-2-trifluoromethyl-4(1H)-pyridone] | 170 to 172 °C | – | – | – | – | – | – | – | – | – | – | – | – | – | – | – | –
CCOC(=O)c1c(C(F)(F)F)[nH]cc(-c2cc(OC(C)C)c(Cl)cc2F)c1=O [Compound No. 6-57, 5-(4-chloro-2-fluoro-5-isopropoxyphenyl)-3-ethoxycarbonyl-2-trifluoromethyl-4(1H)-pyridone] | 118 to 119 °C | – | – | – | – | – | – | – | – | – | – | – | – | – | – | – | –
Cn1c(C(F)(F)F)cc(Cl)c(-c2ccc(Cl)cc2)c1=O [Compound No. 11-1, 3-(4-chlorophenyl)-4-chloro-1-methyl-6-trifluoromethyl-2(1H)-pyridone] | 48 to 50 °C | – | – | – | – | – | – | – | – | – | – | – | – | – | – | – | –
Cn1c(C(F)(F)F)cc(F)c(-c2ccc(Cl)cc2)c1=O [Compound No. 11-2, 3-(4-chlorophenyl)-4-fluoro-1-methyl-6-trifluoromethyl-2(1H)-pyridone] | 120 to 122 °C | – | – | – | – | – | – | – | – | – | – | – | – | – | – | – | –
Cn1c(C(F)(F)F)cc(Cl)c(-c2ccc(Cl)c(NS(C)(=O)=O)c2)c1=O [Compound No. 11-3, 3-(4-chloro-3-methylsulfonylaminophenyl)-4-chloro-1-methyl-6-trifluoromethyl-2(1H)-pyridone] | 161 to 163 °C | – | – | – | – | – | – | – | – | – | – | – | – | – | – | – | –
Cn1c(C(F)(F)F)cc(=O)c(-c2ccc(Cl)cc2)c1Cl [Compound No. 13-1, 3-(4-chlorophenyl)-2-chloro-1-methyl-6-trifluoromethyl-4(1H)-pyridone] | 88 to 90 °C | – | – | – | – | – | – | – | – | – | – | – | – | – | – | – | –

Second part, led by results:

melting point | Structure (SMILES) | Herbicidal effects Am (slender amaranth (Am) [1]; [12]) | Herbicidal effects Ci (rice flatsedge (Ci) [2]; [12]) | Herbicidal effects Di (Diaitaria ciliaris (Di); [12]) | Herbicidal effects Ch [3, 12] | Herbicidal effects Ec (barnyardgrass (Ec) [4]; [12]) | Herbicidal effects Po (pale smartweed (Po) [5]; [12]) | Herbicidal effects Mo (monochoria (Mo)) | Herbicidal effects Sc (bulrush (Sc)) | Herbicidal effects Ec (barnyardgrass (Ec) [6]) | Herbicidal effects Am (slender amaranth (Am) [7]; [13]) | Herbicidal effects Ci (rice flatsedge (Ci) [8]; [13]) | Herbicidal effects Ch [9, 13] | Herbicidal effects Ec (barnyardgrass (Ec) [10]; [13]) | Herbicidal effects Po (pale smartweed (Po) [11]; [13]) | Herbicidal effects Di (Digitaria ciliaris (Di); [13]) | other results
103 to 104 °C | Cn1c(C(F)(F)F)ccc(-c2ccc(Cl)cc2F)c1=O [Compound No. 1-2, 3-(4-chloro-2-fluorophenyl)-1-methyl-6-trifluoromethyl-2(1H)-pyridone] | 5 | 5 | 5 | 5 | 5 | 5 | 5 | 5 | 5 | 5 | 5 | 5 | 5 | 5 | 5 | –
139 to 140 °C | Cn1c(C(F)(F)F)ccc(-c2cc([N+](=O)[O-])c(Cl)cc2F)c1=O [Compound No. 1-58, 3-(4-chloro-2-fluoro-5-nitrophenyl)-1-methyl-6-trifluoromethyl-2(1H)-pyridone] | – | – | – | – | – | – | 5 | 5 | 5 | – | – | – | – | – | – | –
113 to 114 °C | Cn1c(C(F)(F)F)ccc(-c2cc(NS(C)(=O)=O)c(Cl)cc2F)c1=O [Compound No. 1-60, 3-(4-chloro-2-fluoro-5-methylsulfonylaminophenyl)-1-methyl-6-trifluoromethyl-2(1H)-pyridone] | 5 | 5 | 5 | 5 | 5 | 5 | 5 | 5 | 5 | 5 | 5 | 5 | 5 | 5 | 5 | –
144 to 145 °C | Cn1c(C(F)(F)F)ccc(-c2cc(S(C)(=O)=O)c(Cl)cc2F)c1=O [Compound No. 1-73, 3-(4-chloro-2-fluoro-5-methylsulfonylphenyl)-1-methyl-6-trifluoromethyl-2(1H)-pyridone] | – | – | – | – | – | – | 5 | 5 | 5 | 5 | 5 | 5 | 4 | 5 | 5 | –
117 to 118 °C | Cn1c(C(F)(F)F)ccc(-c2cc(CBr)c(Cl)cc2F)c1=O [Compound No. 1-82, 3-(4-chloro-2-fluoro-5-bromomethylphenyl)-1-methyl-6-trifluoromethyl-2(1H)-pyridone] | 5 | 5 | 5 | 5 | 4 | 5 | 5 | 5 | 5 | 5 | 5 | 5 | 4 | 5 | 5 | –
77 to 78 °C | Cn1c(C(F)(F)F)ccc(-c2cc(S(=O)(=O)Cl)c(Cl)cc2F)c1=O [Compound No. 1-84, 3-(4-chloro-5-chlorosulfonyl-2-fluorophenyl)-1-methyl-6-trifluoromethyl-2(1H)-pyridone] | 5 | 5 | 5 | 5 | 5 | 5 | – | – | – | – | – | – | – | – | – | –
147 to 148 °C | Cn1c(C(F)(F)F)ccc(-c2cc([S+](C)[O-])c(Cl)cc2F)c1=O (centres unmarked) [Compound No. 1-88, 3-(4-chloro-2-fluoro-5-methylsulfinylphenyl)-1-methyl-6-trifluoromethyl-2(1H)-pyridone] | – | – | – | – | – | – | 5 | 5 | 5 | 5 | 5 | 5 | 4 | 5 | 5 | –
120 to 122 °C | CCCC(O)c1cc(-c2ccc(C(F)(F)F)n(C)c2=O)c(F)cc1Cl (centres unmarked) [Compound No. 1-193, 3-[4-chloro-2-fluoro-5-(1-hydroxybutyl)phenyl]-1-methyl-6-trifluoromethyl-2(1H)-pyridone] | – | – | – | – | – | – | 5 | 5 | 5 | – | – | – | – | – | – | Herbicidal effects Am (slender amaranth (Am) [1]; [14]): 5; Herbicidal effects Ci (rice flatsedge (Ci) [2]; [14]): 5; Herbicidal effects Di (Diaitaria ciliaris (Di); [14]): 5; Herbicidal effects Ch [3, 14]: 5; Herbicidal effects Ec (barnyardgrass (Ec) [4]; [14]): 5; Herbicidal effects Po (pale smartweed (Po) [5]; [14]): 5; Herbicidal effects Am (slender amaranth (Am) [7]; [15]): 5; Herbicidal effects Ci (rice flatsedge (Ci) [8]; [15]): 5; Herbicidal effects Ch [9, 15]: 5; Herbicidal effects Ec (barnyardgrass (Ec) [10]; [15]): 5; Herbicidal effects Po (pale smartweed (Po) [11]; [15]): 5; Herbicidal effects Di (Digitaria ciliaris (Di); [15]): 5

Source: patent US6472348B1, “Pyridone derivatives and herbicides” (Kumiai Chemical Industry Co., Ltd., priority 1996, dated 2002)
